Values joined by “and” are separate entries in the source; they are usually repeats but may differ in a detail not shown here. Identical values can stand only once. Toxic doses and inconclusive results are not listed. Rule for the calls: active = survival T/C of 150% or more; inactive = T/C below 125% in these data.
Tested on: CD2F1 mice, L1210 leukemia ip, survival T/C
Test: NCI In Vivo Anticancer Drug Screen. Data for tumor model L1210 Leukemia (intraperitoneal) in CD2F1 (CDF1) mice
Settings: higher = longer survival
Procedure, shortened: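 Implant tumor; dose compound or vehicle; measure endpoint in both groups; report treated divided by control.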

[1] = endpoint: mean survival time, dose: 100.0 mg/kg/injection, schedule: Q01DX009 (ip), vehicle: saline with Tween-80
[2] = endpoint: mean survival time, dose: 200.0 mg/kg/injection, schedule: Q01DX009 (ip), vehicle: saline with Tween-80
[3] = endpoint: mean survival time, dose: 100.0 mg/kg/injection, schedule: Q04DX003 (ip), vehicle: saline with Tween-80
[4] = endpoint: mean survival time, dose: 400.0 mg/kg/injection, schedule: Q01DX009 (ip), vehicle: saline with Tween-80
[5] = endpoint: mean survival time, dose: 200.0 mg/kg/injection, schedule: Q04DX003 (ip), vehicle: saline with Tween-80
[6] = endpoint: mean survival time, dose: 400.0 mg/kg/injection, schedule: Q04DX003 (ip), vehicle: saline with Tween-80

Measured: T/C

Cc1ccccc1-c1nc2c([nH]1)c(=O)n(C)c(=O)n2C
inactive: endpoint: mean survival time, dose: 12.5 mg/kg/injection, schedule: Q01DX005 (ip), vehicle: distilled water + Tween-80 87 % of control | endpoint: mean survival time, dose: 25.0 mg/kg/injection, schedule: Q01DX005 (ip), vehicle: distilled water + Tween-80 92 % of control and 94 % of control | endpoint: mean survival time, dose: 50.0 mg/kg/injection, schedule: Q01DX005 (ip), vehicle: distilled water + Tween-80 93 % of control and 95 % of control | endpoint: mean survival time, dose: 100.0 mg/kg/injection, schedule: Q01DX005 (ip), vehicle: distilled water + Tween-80 88 % of control | endpoint: mean survival time, dose: 200.0 mg/kg/injection, schedule: Q01DX005 (ip), vehicle: distilled water + Tween-80 88 % of control and 93 % of control | endpoint: mean survival time, dose: 400.0 mg/kg/injection, schedule: Q01DX005 (ip), vehicle: distilled water + Tween-80 90 % of control

CCCCCCCCCCCCCCCC(=O)N(CCCN(CC)CC)C(C)CCCN(CC)CC (centres undefined)
inactive: endpoint: mean survival time, dose: 1.56 mg/kg/injection, schedule: Q01DX009 (ip), vehicle: water 102 % of control | endpoint: mean survival time, dose: 3.13 mg/kg/injection, schedule: Q01DX009 (ip), vehicle: water 100 % of control | endpoint: mean survival time, dose: 6.25 mg/kg/injection, schedule: Q01DX009 (ip), vehicle: water 96 % of control

O=[N+]([O-])c1cccc(S(=O)(=O)SC(Cl)(Cl)Cl)c1
inactive: endpoint: mean survival time, dose: 6.25 mg/kg/injection, schedule: Q04DX003 (ip), vehicle: saline 102 % of control | endpoint: mean survival time, dose: 12.5 mg/kg/injection, schedule: Q04DX003 (ip), vehicle: saline 97 % of control | endpoint: mean survival time, dose: 25.0 mg/kg/injection, schedule: Q04DX003 (ip), vehicle: saline 102 % of control

CCC(=O)c1ccc(OC(C)=O)c(OC(C)=O)c1
inactive: endpoint: mean survival time, dose: 100.0 mg/kg/injection, schedule: Q01DX009 (ip), vehicle: saline 96 % of control | endpoint: mean survival time, dose: 200.0 mg/kg/injection, schedule: Q01DX009 (ip), vehicle: saline 96 % of control | endpoint: mean survival time, dose: 400.0 mg/kg/injection, schedule: Q01DX009 (ip), vehicle: saline 96 % of control

O=C(O)C(=O)O.O=C(O)C(=O)O.O=C(O)C(=O)O.[Co]
inactive: endpoint: mean survival time, dose: 50.0 mg/kg/injection, schedule: Q04DX002 (ip), vehicle: saline 93 % of control

N#CSCc1cc(=O)c(O)co1
inactive: endpoint: mean survival time, dose: 6.25 mg/kg/injection, schedule: Q04DX003 (ip), vehicle: saline with Tween-80 104 % of control | endpoint: mean survival time, dose: 12.5 mg/kg/injection, schedule: Q04DX003 (ip), vehicle: saline with Tween-80 94 % of control

C1=Cc2ccccc2/C1=C/c1ccc(/C=C2\C=Cc3ccccc32)cc1
inactive: [1] 98 % of control | [2] 89 % of control | endpoint: mean survival time, dose: 700.0 mg/kg/injection, schedule: Q01DX009 (ip), vehicle: saline with Tween-80 89 % of control

NC(CCC(=O)NC(CS)C(=O)NCC(=O)O)C(=O)O (centres undefined)
inactive: endpoint: median survival time, dose: 25.0 mg/kg/injection, schedule: Q01DX009 (ip), vehicle: saline 100 % of control | endpoint: median survival time, dose: 50.0 mg/kg/injection, schedule: Q01DX009 (ip), vehicle: saline 110 % of control | endpoint: median survival time, dose: 100.0 mg/kg/injection, schedule: Q01DX009 (ip), vehicle: saline 104 % of control | endpoint: median survival time, dose: 200.0 mg/kg/injection, schedule: Q01DX009 (ip), vehicle: saline 104 % of control | endpoint: median survival time, dose: 400.0 mg/kg/injection, schedule: Q01DX009 (ip), vehicle: saline 94 % of control

O=C(CCN1CC1)Nc1ccc(NC(=O)CCN2CC2)cc1
inactive: endpoint: mean survival time, dose: 5.0 mg/kg/injection, schedule: Q04DX003 (ip), vehicle: Klucel (hydroxypropylcellulose) (HPC) 106 % of control | endpoint: mean survival time, dose: 80.0 mg/kg/injection, schedule: Q04DX003 (ip), vehicle: Klucel (hydroxypropylcellulose) (HPC) 115 % of control

COc1cccc(CCC(=O)O)c1OC
inactive: endpoint: mean survival time, dose: 25.0 mg/kg/injection, schedule: Q01DX009 (ip), vehicle: Klucel (hydroxypropylcellulose) (HPC) 98 % of control | endpoint: mean survival time, dose: 50.0 mg/kg/injection, schedule: Q01DX009 (ip), vehicle: Klucel (hydroxypropylcellulose) (HPC) 101 % of control | endpoint: mean survival time, dose: 100.0 mg/kg/injection, schedule: Q01DX009 (ip), vehicle: Klucel (hydroxypropylcellulose) (HPC) 98 % of control | endpoint: mean survival time, dose: 200.0 mg/kg/injection, schedule: Q01DX009 (ip), vehicle: Klucel (hydroxypropylcellulose) (HPC) 87 % of control | endpoint: mean survival time, dose: 400.0 mg/kg/injection, schedule: Q01DX009 (ip), vehicle: Klucel (hydroxypropylcellulose) (HPC) 88 % of control

COC(=O)C1C2CCC(C2)C1C (centres undefined)
inactive: endpoint: mean survival time, dose: 25.0 mg/kg/injection, schedule: Q01DX009 (ip), vehicle: saline with Tween-80 93 % of control | endpoint: mean survival time, dose: 50.0 mg/kg/injection, schedule: Q01DX009 (ip), vehicle: saline with Tween-80 104 % of control | [1] 98 % of control | [3] 90 % of control

C=C(C)C1CCC2(C=O)CCC3(C)C(CCC4C5(C)CCC(OC6CCCCO6)C(C)(C)C5CCC43C)C12 (centres undefined)
inactive: endpoint: mean survival time, dose: 6.25 mg/kg/injection, schedule: Q04DX002 (ip), vehicle: saline with Tween-80 111 % of control | endpoint: mean survival time, dose: 12.5 mg/kg/injection, schedule: Q04DX002 (ip), vehicle: saline with Tween-80 100 % of control | endpoint: mean survival time, dose: 25.0 mg/kg/injection, schedule: Q04DX002 (ip), vehicle: saline with Tween-80 100 % of control

Oc1ccc(O)c2c1C1(Cl)C(Cl)=C(Cl)C2(Cl)C1(Cl)Cl
inactive: endpoint: mean survival time, dose: 100.0 mg/kg/injection, schedule: Q01DX009 (ip), vehicle: other 95 % of control | endpoint: mean survival time, dose: 200.0 mg/kg/injection, schedule: Q01DX009 (ip), vehicle: other 98 % of control | endpoint: mean survival time, dose: 400.0 mg/kg/injection, schedule: Q01DX009 (ip), vehicle: other 106 % of control

Cc1cccc(/C=C2\Cc3ccccc3C2=O)c1
inactive: endpoint: mean survival time, dose: 100.0 mg/kg/injection, schedule: Q01DX001 (ip), vehicle: saline with Tween-80 103 % of control | endpoint: mean survival time, dose: 200.0 mg/kg/injection, schedule: Q01DX001 (ip), vehicle: saline with Tween-80 95 % of control | endpoint: mean survival time, dose: 400.0 mg/kg/injection, schedule: Q01DX001 (ip), vehicle: saline with Tween-80 103 % of control

Cc1cc2nc(CC(O)(C(F)(F)F)C(F)(F)F)oc2cc1C
inactive: [1] 91 % of control | [2] 92 % of control | [4] 96 % of control

O=C(Nc1ccc2c3c(ccc(NC(=O)c4ccccc4)c13)C=C2)c1ccccc1
inactive: [1] 95 % of control | [4] 89 % of control

Nc1nc(-c2ccccc2)nc2c1=NC(c1ccccc1)N=2 (centres undefined)
inactive: endpoint: mean survival time, dose: 12.5 mg/kg/injection, schedule: Q01DX005 (ip), vehicle: other 96 % of control | endpoint: mean survival time, dose: 25.0 mg/kg/injection, schedule: Q01DX005 (ip), vehicle: other 98 % of control | endpoint: mean survival time, dose: 50.0 mg/kg/injection, schedule: Q01DX005 (ip), vehicle: other 98 % of control | endpoint: mean survival time, dose: 100.0 mg/kg/injection, schedule: Q01DX005 (ip), vehicle: other 93 % of control | endpoint: mean survival time, dose: 200.0 mg/kg/injection, schedule: Q01DX005 (ip), vehicle: other 93 % of control

CC(=O)OC1CC2CCC1(C)C2(C)C (centres undefined)
inactive: [3] 101 % of control | [5] 95 % of control

OC1COCOC1C1OCOCC1O (centres undefined)
inactive: endpoint: mean survival time, dose: 100.0 mg/kg/injection, schedule: Q04DX003 (ip), vehicle: saline 95 % of control | endpoint: mean survival time, dose: 200.0 mg/kg/injection, schedule: Q04DX003 (ip), vehicle: saline 95 % of control | endpoint: mean survival time, dose: 400.0 mg/kg/injection, schedule: Q04DX003 (ip), vehicle: saline 97 % of control

CCCCCCCCCCCCCCCCCC[N+](C)(C)C (tested in a mixture with another compound)
inactive: endpoint: mean survival time, dose: 1.5 mg/kg/injection, schedule: Q01DX009 (ip), vehicle: saline with Tween-80 100 % of control | endpoint: mean survival time, dose: 3.0 mg/kg/injection, schedule: Q01DX009 (ip), vehicle: saline with Tween-80 94 % of control | endpoint: mean survival time, dose: 6.0 mg/kg/injection, schedule: Q01DX009 (ip), vehicle: saline with Tween-80 94 % of control

CCCCc1ccc(N=C(N)N=C(N)N)cc1
inactive: endpoint: mean survival time, dose: 9.5 mg/kg/injection, schedule: Q01DX001 (ip), vehicle: other 103 % of control | endpoint: mean survival time, dose: 19.0 mg/kg/injection, schedule: Q01DX001 (ip), vehicle: other 94 % of control | endpoint: mean survival time, dose: 38.0 mg/kg/injection, schedule: Q01DX001 (ip), vehicle: other 91 % of control

COc1ccc2c(c1)c1c(C)c3cnccc3c(C)c1n2CCO
inactive: [3] 112 % of control | [5] 115 % of control

Cc1ccc(-[n+]2nscc2O)cc1
inactive: endpoint: mean survival time, dose: 75.0 mg/kg/injection, schedule: Q01DX001 (ip), vehicle: saline 96 % of control | endpoint: mean survival time, dose: 150.0 mg/kg/injection, schedule: Q01DX001 (ip), vehicle: saline 97 % of control | endpoint: mean survival time, dose: 300.0 mg/kg/injection, schedule: Q01DX001 (ip), vehicle: saline 92 % of control

NC1CCCCCCC1O (centres undefined)
inactive: endpoint: mean survival time, dose: 5.0 mg/kg/injection, schedule: Q01DX001 (ip), vehicle: saline sonified 114 % of control | endpoint: mean survival time, dose: 10.0 mg/kg/injection, schedule: Q01DX001 (ip), vehicle: saline sonified 92 % of control | endpoint: mean survival time, dose: 20.0 mg/kg/injection, schedule: Q01DX001 (ip), vehicle: saline sonified 100 % of control

CCOc1cc([N+](=O)[O-])c(OCC)cc1Cl
inactive: [1] 90 % of control | [3] 92 % of control | [2] 96 % of control | [5] 89 % of control | [4] 98 % of control | [6] 93 % of control

C=CC1CCCCC1C=C (centres undefined)
inactive: [3] 110 % of control | [5] 102 % of control | [6] 100 % of control
